# Results reported in US6355799B1, “Substituted benzene compounds, process for their preparation, and herbicidal and defoliant compositions containing them” (ISK Americas Incorporated, priority 1997, dated 2002).
# Tests used:
# Format in all cases: in vivo
# [1] = system: barnyardgrass (Echinochloa crus-galli, ECHCG); assay: Pre-emerge test, greenhouse herbicide activity screening; details: pre-emerge, 14 days after application, scale 0-100
# In short: (§1)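 Fourteen days after spraying, crop and weed injury was graded visually from 0, no effect, to 100, every plant dead. Test substances were dissolved in acetone and applied at 15–1000 g ai/ha with a flat-fan nozzle. Application was either pre-emergence, one day after sowing, or post-emergence at the 2–3 leaf stage.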
# [2] = system: lambsquarters (Chenopodium album, CHEAL); assay: as above; details: pre-emerge, 14 days after application, scale 0-100
# In short: as §1
# [3] = system: common ragweed (Ambrosia artemisizfolia L., AMBEL); assay: as above; details: pre-emerge, 14 days after application, scale 0-100
# In short: as §1
# [4] = system: large crabgrass (Digitaria sanguinalis, DIGSA); assay: as above; details: pre-emerge, 14 days after application, scale 0-100
# In short: as §1
# [5] = system: green foxtail (Setaria viridis, SETVI); assay: as above; details: pre-emerge, 14 days after application, scale 0-100
# In short: as §1
# [6] = system: johnsongrass (Sorghum halepense, SORHA); assay: as above; details: pre-emerge, 14 days after application, scale 0-100
# In short: as §1
# [7] = system: sicklepod (Cassia obtusifolia, CASOB); assay: as above; details: pre-emerge, 14 days after application, scale 0-100
# In short: as §1
# [8] = system: velvetleaf (Abutilon theophrasti, ABUTH); assay: as above; details: pre-emerge, 14 days after application, scale 0-100
# In short: as §1
# [9] = system: ivyleaf morningglory (Ipomoea hederacea, IPOHE); assay: as above; details: pre-emerge, 14 days after application, scale 0-100
# In short: as §1
# [10] = system: upland rice (Oryza sp., var. Tebonnet, RICE); assay: Post-emerge test, crop safety; details: post-emerge, 14 days after application, rating scale 0-100
# In short: as §1
# [11] = system: field corn (Zea mays L., var. Dekalb 535, CORN); assay: Post-emerge test, crop safety; details: post-emerge, 14 days after application, rating scale 0-100
# In short: as §1
# [12] = system: redroot pigweed (Amaranthus retroflexus, AMARE); assay: Pre-emerge test, greenhouse herbicide activity screening; details: pre-emerge, 14 days after application, scale 0-100
# In short: (§2)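 Visual ratings on a 0-100 scale (0 no damage, 100 all plants dead) were taken at 14 days after treatment. Rates of 15-1000 g ai/ha in acetone, 187 l/ha, were sprayed onto soil one day after planting (pre-emerge) or onto 2-3 leaf plants with 0.25% v/v surfactant (post-emerge).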
# [13] = system: barnyardgrass (Echinochloa crus-galli, ECHCG); assay: Post-emerge test, greenhouse herbicide activity screening; details: post-emerge, 14 days after application, rating scale 0-100
# In short: (§3)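 Sandy loam pots; pre-emerge: sown 1 d pre-spray, surface-watered after, then bottom-watered. Post-emerge: sown 8–21 d before, 2–3 leaf stage, + 0.25% v/v NIS, bottom-watered. Acetone, 187 l/ha track spray, 15–1000 g ai/ha. 0–100 injury score, day 14.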
# [14] = system: lambsquarters (Chenopodium album, CHEAL); assay: as above; details: post-emerge, 14 days after application, rating scale 0-100
# In short: as §3
# [15] = system: common ragweed (Ambrosia artemisizfolia L., AMBEL); assay: as above; details: post-emerge, 14 days after application, rating scale 0-100
# In short: as §3
# [16] = system: large crabgrass (Digitaria sanguinalis, DIGSA); assay: as above; details: post-emerge, 14 days after application, rating scale 0-100
# In short: as §3
# [17] = system: green foxtail (Setaria viridis, SETVI); assay: as above; details: post-emerge, 14 days after application, rating scale 0-100
# In short: as §3
# [18] = system: redroot pigweed (Amaranthus retroflexus, AMARE); assay: as above; details: post-emerge, 14 days after application, rating scale 0-100
# In short: as §3
# [19] = system: sicklepod (Cassia obtusifolia, CASOB); assay: as above; details: post-emerge, 14 days after application, rating scale 0-100
# In short: as §3
# [20] = system: velvetleaf (Abutilon theophrasti, ABUTH); assay: as above; details: post-emerge, 14 days after application, rating scale 0-100
# In short: as §3
# [21] = system: ivyleaf morningglory (Ipomoea hederacea, IPOHE); assay: as above; details: post-emerge, 14 days after application, rating scale 0-100
# In short: as §3
# [22] = system: upland rice (Oryza sp., var. Tebonnet, RICE); assay: Pre-emerge test, crop safety; details: pre-emerge, 14 days after application, scale 0-100
# In short: as §2
# [23] = system: field corn (Zea mays L., var. Dekalb 535, CORN); assay: Pre-emerge test, crop safety; details: pre-emerge, 14 days after application, scale 0-100
# In short: as §2
compound,measurement,setting,value
Cn1c(C(F)(F)F)cc(=O)n(-c2c(F)cc(Cl)cc2NC2CC2)c1=O [2-147],phytotoxicity rating ECHCG,[1]; 63 g ai/ha,90
same,phytotoxicity rating ECHCG,[1]; 250 g ai/ha,100
same,phytotoxicity rating CHEAL,[2]; 63 g ai/ha,100
same,phytotoxicity rating CHEAL,[2]; 250 g ai/ha,100
same,phytotoxicity rating AMBEL,[3]; 63 g ai/ha,80
same,phytotoxicity rating AMBEL,[3]; 250 g ai/ha,100
same,phytotoxicity rating DIGSA,[4]; 63 g ai/ha,90
same,phytotoxicity rating DIGSA,[4]; 250 g ai/ha,100
same,phytotoxicity rating SETVI,[5]; 63 g ai/ha,100
same,phytotoxicity rating SETVI,[5]; 250 g ai/ha,100
same,phytotoxicity rating SORHA,[6]; 63 g ai/ha,90
same,phytotoxicity rating SORHA,[6]; 250 g ai/ha,100
same,phytotoxicity rating CASOB,[7]; 63 g ai/ha,40
same,phytotoxicity rating CASOB,[7]; 250 g ai/ha,100
same,phytotoxicity rating ABUTH,[8]; 63 g ai/ha,100
same,phytotoxicity rating ABUTH,[8]; 250 g ai/ha,100
same,phytotoxicity rating IPOHE,[9]; 63 g ai/ha,80
same,phytotoxicity rating IPOHE,[9]; 250 g ai/ha,100
same,RICE phytotoxicity rating (crop damage),[10]; 63 g ai/ha,50
same,RICE phytotoxicity rating (crop damage),[10]; 250 g ai/ha,75
same,CORN phytotoxicity rating (crop damage),[11]; 63 g ai/ha,15
same,CORN phytotoxicity rating (crop damage),[11]; 250 g ai/ha,90
same,phytotoxicity rating AMARE,[12]; 63 g ai/ha,100
same,phytotoxicity rating AMARE,[12]; 250 g ai/ha,100
same,ECHCG phytotoxicity rating,[13]; 63 g ai/ha,10
same,ECHCG phytotoxicity rating,[13]; 250 g ai/ha,50
same,CHEAL phytotoxicity rating,[14]; 63 g ai/ha,100
same,CHEAL phytotoxicity rating,[14]; 250 g ai/ha,100
same,AMBEL phytotoxicity rating,[15]; 63 g ai/ha,95
same,AMBEL phytotoxicity rating,[15]; 250 g ai/ha,100
same,DIGSA phytotoxicity rating,[16]; 63 g ai/ha,20
same,DIGSA phytotoxicity rating,[16]; 250 g ai/ha,50
same,SETVI phytotoxicity rating,[17]; 63 g ai/ha,20
same,SETVI phytotoxicity rating,[17]; 250 g ai/ha,40
same,AMARE phytotoxicity rating,[18]; 63 g ai/ha,100
same,AMARE phytotoxicity rating,[18]; 250 g ai/ha,100
same,CASOB phytotoxicity rating,[19]; 63 g ai/ha,80
same,CASOB phytotoxicity rating,[19]; 250 g ai/ha,95
same,ABUTH phytotoxicity rating,[20]; 63 g ai/ha,100
same,ABUTH phytotoxicity rating,[20]; 250 g ai/ha,100
same,IPOHE phytotoxicity rating,[21]; 63 g ai/ha,100
same,IPOHE phytotoxicity rating,[21]; 250 g ai/ha,100
same,phytotoxicity rating RICE (crop damage),[22]; 63 g ai/ha,99
same,phytotoxicity rating RICE (crop damage),[22]; 250 g ai/ha,100
same,phytotoxicity rating CORN (crop damage),[23]; 63 g ai/ha,100
same,phytotoxicity rating CORN (crop damage),[23]; 250 g ai/ha,100
